Source: paper PMC3904209 (AMB Express, 2014)

Assays:
Details in all cases: 50 mM KHCO3, 50 mM HEPES, 50 mM Na2SO4, 50 mM MgSO4, pH 6, 1°C
[1] = target: Can (Cupriavidus necator, UniProt Q0KFA0)
[2] = target: Can2 (Cupriavidus necator, UniProt Q0JYX2)
[3] = target: T1, Cag (Cupriavidus necator, UniProt Q0KCD8)
T1 construct: gene H16_A1192

[4] = target: T2, CaaB (Cupriavidus necator, UniProt Q0JYI9)
T2 construct: gene caa

[5] = target: Caa (Cupriavidus necator, UniProt Q0JYI9)
Caa, sequence (Q0JYI9 1-249): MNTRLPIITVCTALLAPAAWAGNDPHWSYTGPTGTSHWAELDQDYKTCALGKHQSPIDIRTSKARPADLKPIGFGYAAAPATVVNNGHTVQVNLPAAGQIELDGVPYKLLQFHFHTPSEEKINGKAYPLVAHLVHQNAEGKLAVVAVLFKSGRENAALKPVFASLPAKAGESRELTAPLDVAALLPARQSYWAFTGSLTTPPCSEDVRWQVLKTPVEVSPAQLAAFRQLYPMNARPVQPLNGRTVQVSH

T2 sequence (Q0JYI9 24-249): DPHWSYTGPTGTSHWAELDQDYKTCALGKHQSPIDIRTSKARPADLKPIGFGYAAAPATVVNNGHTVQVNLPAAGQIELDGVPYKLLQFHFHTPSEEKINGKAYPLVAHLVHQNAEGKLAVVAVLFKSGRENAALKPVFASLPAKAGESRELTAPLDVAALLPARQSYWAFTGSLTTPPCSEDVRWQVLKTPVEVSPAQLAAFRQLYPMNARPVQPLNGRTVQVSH
Can2, sequence (Q0JYX2 1-235): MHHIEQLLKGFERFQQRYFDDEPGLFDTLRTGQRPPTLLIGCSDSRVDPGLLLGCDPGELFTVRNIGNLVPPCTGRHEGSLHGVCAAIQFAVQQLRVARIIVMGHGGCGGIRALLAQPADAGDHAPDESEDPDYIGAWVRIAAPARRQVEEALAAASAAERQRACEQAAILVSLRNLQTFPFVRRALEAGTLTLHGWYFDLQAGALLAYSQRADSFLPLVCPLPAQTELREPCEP
T1 sequence (Q0KCD8 1-174): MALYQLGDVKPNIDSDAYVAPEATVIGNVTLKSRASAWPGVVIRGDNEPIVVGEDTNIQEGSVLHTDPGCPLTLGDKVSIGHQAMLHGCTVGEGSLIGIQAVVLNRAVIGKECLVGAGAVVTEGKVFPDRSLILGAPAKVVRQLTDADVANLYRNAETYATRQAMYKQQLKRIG
Can, sequence (Q0KFA0 1-223): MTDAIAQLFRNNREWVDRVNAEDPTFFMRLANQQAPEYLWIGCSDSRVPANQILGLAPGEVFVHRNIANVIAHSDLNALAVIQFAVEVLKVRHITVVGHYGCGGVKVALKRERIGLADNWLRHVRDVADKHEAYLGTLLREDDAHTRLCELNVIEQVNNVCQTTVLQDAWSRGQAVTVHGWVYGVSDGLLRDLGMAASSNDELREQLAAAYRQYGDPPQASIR

## O=C(O)O [bicarbonate]
[1]
  stopped-flow pH-indicator (phenol red, A557nm) assay: the specific activities of both Can and Can2 were similar with bicarbonate as a substrate
[2]
  stopped-flow pH-indicator (phenol red, A557nm) assay: the specific activities of both Can and Can2 were similar with bicarbonate as a substrate
[3]
  stopped-flow pH-indicator (phenol red, A557nm) assay: Cag presented the highest activity using bicarbonate as a carbon source
[4]
  stopped-flow pH-indicator (phenol red, A557nm) assay: (CaaB) exhibited similar activity values when compared to the purified, Strep-tagged Caa enzyme
[5]
  stopped-flow pH-indicator (phenol red, A557nm) assay: All CAs were active towards CO2 and bicarbonate
